Source: patent US10864212B2, “Compositions and methods for treating retinal degradation” (University of Kentucky Research Foundation, priority 2013, dated 2020)
Entries after “also recorded” stand apart in the source; their conditions may differ.

Legend:
Caspase-1 [1] = assay: Western blot of Caspase-1 activation in primary human RPE cells transfected with Alu RNA; type: cell-based
Procedure: The bottom row is a vinculin loading control. […]
FIG. 7 is a Western blot showing that Alu RNA causes Caspase-1 maturation in primary human RPE cells at 24 hours after Alu administration (top, middle lane, lower band), which is blocked with co-treatment with azidothymidine (AZT), cordycepin, and abacavir (ABC) (50-100 uM; lanes 3-8 from left). The loading control vinculin is shown on the bottom.
FIG. 21 is a Western blot of Caspase-1 activation (p20 subunit) in primary human RPE cells transfected with Alu RNA±me-d4T.
FIG. 35 is a Western blot of Caspase-1 activation in human RPE cells transfected with Alu RNA±NRTIs (3TC, AZT, ABC).
The bottom row in FIG. 5 is a vinculin loading control. […]
Next, FIG. 7 provides evidence of AZT, cordycepin, and abacavir inhibition of inflammasome activation by Alu RNA. Indeed, Alu RNA causes NLRP3 inflammasome activation, which is marked by processing of the enzyme Caspase 1. FIG. 7 is a Western blot showing that Alu RNA causes Caspase-1 maturation in primary human RPE cells at 24 hours after Alu administration (top, lane 2, lower band), which is blocked with co-treatment with azidothymidine (AZT), cordycepin, and abacavir (ABC) (50-100 uM; Lanes 3-8). Again, the loading control vinculin is shown on the bottom.

Casp-1 = assay: LPS/ATP-induced Casp-1 activation in primary human RPE cells; type: cell-based; conditions: d4T 25/100 uM, FIG. 8
Excerpt: Vinculin was used as the loading control in the gel of FIG. 8. Additionally, as shown, LPS and ATP activate the NLRP3 inflammasome only in combination.
The loading control in FIG. 8 is vinculin. Furthermore, as shown, LPS and ATP activate the NLRP3 inflammasome only in combination, thus treatment with one or the other alone is useful as a control for this experiment.

Caspase-1 [2] = assay: LPS/ATP-induced Caspase-1 activation in mouse bone marrow-derived macrophages (Western blot); type: cell-based
Excerpt: (§1) To produce FIG. 9, cell culture supernatants were collected after (i) no treatment, (ii) LPS treatment, or (iii) LPS/ATP treatment of mouse bone marrow-derived macrophages and run on Western blotting probing with antibodies for Caspase-1 and IL-18.
Further, the present inventors also tested whether NRTIs blocked inflammasome activation by LPS/ATP, which is not known to signal via reverse transcriptase (Mariathasan et al., 2004; Mariathasan et al., 2006; Martinon et al., 2002).
(§2) FIGS. 38-41 illustrate that NRTIs block LPS/ATP-induced inflammasome activation. […] Representative images of n=3-4 experiments are provided in each of FIGS. 38-41.

IL-18 = assay: LPS/ATP-induced IL-18 maturation in mouse bone marrow-derived macrophages (Western blot); type: cell-based; conditions: supernatants, 100 uM, FIG. 9
Excerpt: as §1

IL-1 beta [3] = assay: LPS/ATP-induced IL-1 beta activation in primary mouse bone marrow-derived macrophages (Western blot); type: cell-based; conditions: FIG. 39
Excerpt: To determine whether LPS/ATP-induced inflammasome activation can be inhibited without RT inhibition, the present inventors utilized thymidine kinase-deficient (Raji/TK^−) and -expressing (Raji/TK^+) cells (Balzarini et al., 1989). After addition of AZT, […], but not TK^− cells, the present inventors produced AZT-triphosphate (AZT-TP), the AZT metabolite required for RT inhibition (FIG. 40; FIG. 46, FIG. 47, FIG. 48, FIG. 49, FIG. 50).
as §2

IL-1 beta [4] = assay: MSU-induced IL-1 beta secretion from PMA-differentiated THP-1 monocytes (ELISA); type: cell-based, human; conditions: co-administration at 25-1000 uM, FIG. 11, 12
Excerpt: Human THP-1 monocytes were differentiated into macrophages with PMA.
To illustrate this, human THP-1 monocytes were differentiated into macrophages with PMA. Treatment with MSU increased IL-1 beta secretion compared to non-treated cells.

[5] = test system: extracellular potassium levels; assay: Extracellular potassium levels after Alu RNA transfection of primary human RPE cells (pyruvate kinase assay); type: cell-based; conditions: primary human RPE cells treated with Alu RNA for 6 hours; FIG. 18
Procedure: Potassium levels were determined in cell culture supernatants spectrophotometrically using a potassium-dependent pyruvate kinase assay.
For FIG. 18, potassium levels were determined in cell culture supernatants spectrophotometrically using a potassium-dependent pyruvate kinase assay.

RPE degeneration = RPE degeneration in mice after sub-retinal injection of a plasmid expressing Alu RNA, systemic drug administration; type: in vivo, mouse; conditions: daily oral administration of d4T, FIG. 36
Excerpt: FIG. 24, top row, provides flat mounts stained for zonula occludens-1 (ZO-1; red), bottom row. Degeneration is outlined if FIG. 24 by blue arrowheads. Representative images of n=4 are shown.
FIG. 36 and FIG. 37 include fundus photographs: top row; flat mounts stained for zonula occludens-1 (ZO-1; red), bottom row. Degeneration is outlined by blue arrowheads. Scale bars, 50 μm.

human P2X7 receptor = target: T1, human P2X7 receptor (Homo sapiens, UniProt Q99572); assay: Patch clamp analysis of P2X7 cation channel function, HEK293 stable cell line expressing human P2X7 receptor; type: cell-based
T1 construct: expressed in transfected cells
T1 sequence (Q99572 1-595): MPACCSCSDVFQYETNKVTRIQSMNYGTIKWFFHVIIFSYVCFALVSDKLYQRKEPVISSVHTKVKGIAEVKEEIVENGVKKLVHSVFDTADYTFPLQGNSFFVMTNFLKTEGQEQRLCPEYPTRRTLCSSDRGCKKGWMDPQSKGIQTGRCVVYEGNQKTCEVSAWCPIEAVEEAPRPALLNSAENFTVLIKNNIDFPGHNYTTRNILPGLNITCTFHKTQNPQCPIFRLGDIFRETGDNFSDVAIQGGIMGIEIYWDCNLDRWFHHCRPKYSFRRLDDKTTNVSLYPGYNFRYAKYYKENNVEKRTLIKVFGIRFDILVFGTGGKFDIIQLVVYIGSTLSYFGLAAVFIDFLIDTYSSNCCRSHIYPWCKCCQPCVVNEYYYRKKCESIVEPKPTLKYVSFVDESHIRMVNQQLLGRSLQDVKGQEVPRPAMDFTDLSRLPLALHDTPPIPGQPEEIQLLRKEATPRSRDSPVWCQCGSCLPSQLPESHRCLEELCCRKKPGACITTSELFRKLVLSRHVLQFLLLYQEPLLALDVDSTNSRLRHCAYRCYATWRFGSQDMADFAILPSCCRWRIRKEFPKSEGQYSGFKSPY

neutrophil migration = assay: NLRP3- and P2X7-driven model of sterile inflammation (liver injury); type: in vivo
Excerpt: To explore the potential therapeutic relevance of NRTIs beyond the Alu-induced model of geographic atrophy (GA), it was hypothesized that if NRTIs function as generic inflammasome inhibitors, then they might be broadly useful in other animal models of disease that are also driven by P2X7.

Cc1cn([C@H]2C=C[C@@H](CO)O2)c(=O)[nH]c1=O [d4T, 2′3′ dideoxythymidine]
Caspase-1 maturation caused by Alu RNA (Caspase-1 [1]; 24 hours after Alu administration, d4T 100 uM, FIG. 5): blocked | Caspase-1 activation / cleavage (p20) induced by Alu RNA (Caspase-1 [1]; concentration not given, FIG. 21, 34, 35, 51-53): block Caspase 1 activation by Alu RNA; also recorded: prevents Caspase 1 cleavage to its active 20 kDa form | Casp-1 activation induced by LPS/ATP (Casp-1): blocks | Caspase-1 activation (active p20 band) induced by LPS/ATP (Caspase-1 [2]; mouse bone marrow-derived macrophages, supernatants, 100 uM, FIG. 9): inhibit | LPS/ATP-induced Caspase-1 maturation (Caspase-1 [2]; primary mouse bone marrow-derived macrophages, FIG. 38): inhibited; also recorded: blocked Caspase-1 | IL-18 maturation induced by LPS/ATP (IL-18): inhibit | IL-1 beta activation / secretion of mature IL-1 beta, LPS/ATP (IL-1 beta [3]): blocks secretion of mature IL-1 beta; also recorded: blocked IL-1 beta | IL-1 beta secretion induced by MSU (IL-1 beta [4]): does not prevent P2X7-independent interleukin 1-beta secretion; also recorded: did not significantly affect IL-1beta secretion | Extracellular potassium levels after Alu RNA transfection [5]: reduces extracellular potassium levels | RPE degeneration caused by pAlu (RPE degeneration): blocked RPE degeneration; also recorded: prevented | P2X7 cation channel function (patch clamp) (human P2X7 receptor): did not significantly modulate P2X7 cation channel function | Neutrophil migration to the focus of liver injury (neutrophil migration): reduced neutrophil migration to the focus of liver injury
